PMC4942781, “A sodium channel inhibitor ISTX-I with a novel structure provides a new hint at the evolutionary link between two toxin folds” (Scientific Reports, 2016)
Entries after “also recorded” stand apart in the source; their conditions may differ. Bridge positions count the residues as written; N and C are the ends. Ends that are not written are not given here.

Columns and labels:
TTX-r sodium channel = test: Whole-cell patch clamp, TTX-r sodium currents in rat DRG neurons; type: cell-based
Method: (§1) The effects of ISTX-I on voltage-gated ion channels were investigated in the dorsal root ganglion (DRG). DRG neurons were held at −80 mV for over 4 min to allow adequate equilibration between the micropipette solution and the cell interior, and then current traces were evoked using a 50 ms step depolarization to −10 mV every second.
Figure 3 Effects of ISTX-I on voltage-gated ion channels in rat DRG neurons. […] (C) Dose-dependent inhibition of ISTX-I on the TTX-s Nav channel (n = 5). (D) Current-voltage (I-V) relationship for the TTX-s Nav channel currents before (solid circles) and after (open circles) the application of 5 μM ISTX-I (n = 5). […]
(§2) DRG neurons with a large diameter (>[…]) and those with a relatively small diameter (<[…]) were chosen by measuring TTX-s and TTX-r currents, respectively. […] Potassium, calcium, and sodium currents were recorded in experimental cells using whole-cell patch-clamp recordings at room temperature, which were performed with an HEK EPC10 patch-clamp amplifier. […] Experimental data were acquired and analyzed using the programs patch master and Sigmaplot 9.0 (Sigma, USA). […]
Currents were recorded from experimental cells using whole-cell patch clamptechnique at room temperature (22–25 °C). […] K+ currents were recorded using an internal solution containing the followings (in mM): KCl 140, MgCl2 2.5, HEPES 10, and EGTA 11 (pH 7.2). […]

potassium channel = test: Whole-cell patch clamp, Kv currents in DRG neurons; type: cell-based, rat; conditions: 20 μM ISTX-I, 500 ms depolarized potential of +10 mV
Method: Rat DRG cells were acutely dissociated from adult Sprague-Dawley rats[30]. Briefly, adult rats of either sex with body weights of approximately 200 g were killed by decapitation. The dorsal root ganglia were isolated quickly from the spinal cord and then transferred into Dulbecco’s modified Eagle’s medium (DMEM) containing trypsin I (0.15 mg/mL) and collagenase II (0.3 mg/mL) for incubation with an oscillation frequency of 200 rpm at 37 °C for 20 min. The trypsin inhibitor II-S (1 mg/mL) was added to terminate the reaction. […]
as §2
Currents were recorded from experimental cells using whole-cell patch clamptechnique at room temperature (22–25 °C). […]
(pH 7.4). K+ currents were recorded using an internal solution containing the followings (in mM): KCl 140, MgCl2 2.5, HEPES 10, and EGTA 11 (pH 7.2). […]

TTX-s sodium channel = test: Whole-cell patch clamp, TTX-s sodium currents in rat DRG neurons; type: cell-based
Method: as §1
Figure 3 Effects of ISTX-I on voltage-gated ion channels in rat DRG neurons. […] (C) Dose-dependent inhibition of ISTX-I on the TTX-s Nav channel (n = 5). (D) Current-voltage (I-V) relationship for the TTX-s Nav channel currents before (solid circles) and after (open circles) the application of 5 μM ISTX-I (n = 5). (E) Conductance–voltage (G-V) relationship of the TTX-s Nav channel before (solid circles) and after (open circles) treatment with 5 μM ISTX-I (n = 5). (F) Steady-state inactivation of the TTX-s Nav channel currents before (solid circles) and after(open circles) the application of 10 μM ISTX-I (n = 5).
Rat DRG cells were acutely dissociated from adult Sprague-Dawley rats[30]. Briefly, adult rats of either sex with body weights of approximately 200 g were killed by decapitation. The dorsal root ganglia were isolated quickly from the spinal cord and then transferred into Dulbecco’s modified Eagle’s medium (DMEM) containing trypsin I (0.15 mg/mL) and collagenase II (0.3 mg/mL) for incubation with an oscillation frequency of 200 rpm at 37 °C for 20 min. The trypsin inhibitor II-S (1 mg/mL) was added to terminate the reaction. The isolated DRG cells were split into 35 mm culture dishes with DMEM solution containing 10% fetal bovine serum (FBS) and were incubated in a CO2 incubator (5% CO2, 95% air, 37 °C) for 1–4 h before the patch-clamp experiment.
DRG neurons with a large diameter (>[…]) and those with a relatively small diameter (<[…]) were chosen by measuring TTX-s and TTX-r currents, respectively. Meanwhile, TTX (final concentration at 100 nM) was used to separate TTX-r sodium currents from TTX-s sodium currents. Suction pipettes (2.0–4.0 MΩ) were made of borosilicate glass capillary tubes with two-step pulling on a vertical micropipette puller (PC-10, Narishige). Potassium, calcium, and sodium currents were recorded in experimental cells using whole-cell patch-clamp recordings at room temperature, which were performed with an HEK EPC10 patch-clamp amplifier. The P/4 protocol was used to subtract linear capacitive and leakage currents. Experimental data were acquired and analyzed using the programs patch master and Sigmaplot 9.0 (Sigma, USA). All of the data points represent the mean ± SE (n = the number of separate experimental cells examined). Dose-response curves were fitted using the following Hill logistic equation: y = 1 − (1 − fmax)/[1 + ([Tx]/IC50)^n] in which n is an empirical Hill coefficient and fmax is the fraction of current resistant to inhibition at high toxin (Tx) concentrations.
Electrophysiological studies.
Currents were recorded from experimental cells using whole-cell patch clamptechnique at room temperature (22–25 °C). The patch pipettes were fabricated from borosilicate glass tubing using a two-stage vertical microelectrode puller (PC-10, Narishige, Japan). After establishing the whole-cell recording configuration, the resting potential was held at −80 mV for at least 5 min to allow adequate equilibration between the micropipette solution and the cell interior. The micropipette solution of sodium currents for dorsal root ganglion neurons contained (in mM): 105 […]
Ionic currents were filtered at 3 kHz and sampled at 20 kHz on EPC-9 patch clamp amplifier (HEKA, Lambrecht, Germany).
Supplementary Figure legends
Figure S1. Expression, purification and molecular mass determination of recombinant ISTX-I. A: Separation of ISTX-I by Sephadex G-50 gel filtration. […]
protein molecular weight marker; lanes1&2, ISTX-I/pET-32a(+) uninduced and induced cells, respectively. B: The protein peak (indicated by an arrow) from […]

LCSENGDCAADECCVDTVFEGDMVTRSCEKTTGNFTECPGLTPIA (disulfide 2-14, 8-28, 13-38) [ISTX-I]
effect on TTX-r sodium channels (summary) (TTX-r sodium channel): not TTX-r sodium channels | effect on TTX-r sodium channel currents (TTX-r sodium channel; 10 μM ISTX-I, 100 nM TTX to separate TTX-r currents): no effect | effect on potassium channels (potassium channel): no obvious effects; also recorded: No effects were detected | effect on TTX-s sodium channels (summary) (TTX-s sodium channel): specifically inhibited TTX-s sodium channels | Inhibition of TTX-s Nav channel currents (TTX-s sodium channel; 1 μM ISTX-I (legend of Fig. 3A)): Inhibition of TTX-s Nav channel currents | reduction of TTX-s sodium channel currents (TTX-s sodium channel; 2 μM ISTX-I, 50 ms step depolarization to −10 mV, held at −80 mV, room temperature): approximately 50% | change of conductance–voltage (G-V) relationship (TTX-s sodium channel; 5 μM ISTX-I, TTX-s, n = 5): No changes | shift of current–voltage (I-V) curve (TTX-s sodium channel; 5 μM ISTX-I, TTX-s, n = 5): No changes | shift of steady-state inactivation curve, hyperpolarized direction (TTX-s sodium channel; 10 μM ISTX-I, TTX-s, n = 5): approximately 11 mV | IC50 (TTX-s sodium channel; Hill equation fit, 50 ms step to −10 mV from −80 mV, mean ± SE, n = 5): 2500 ± 1400 nM
